This is an account of results in US20210205329A1 (The University of North Carolina at Chapel Hill, priority 2018, published 2021).

The subject of the assay is innately activated TLR4 signal in P rat VTA. Kind of assay: TLR4 signaling in P rat VTA after systemic neurosteroid (immunoblot, MCP-1 ELISA). The format is in vivo. Conditions: 45 minutes. On the procedure:
Immunoblotting for whole VTA lysates was done as previously described (Carlson et al, 2013). Briefly, VTA micropunches (1 mm thick) were lysed with CelLytic MT (dialyzable mild detergent, bicine, and 150 mM NaCl; Sigma-Aldrich) and protease and phosphatase inhibitor cocktail according to the manufacturer's instructions. Total protein was determined by the BCA assay. The proteins (10 μg/lane) were resolved by NuPAGE™ 4-12% Bis-Tris Midi Protein Gel (Thermo Fisher, Waltham, Mass.) electrophoresis and transferred using the iBlot 2 Dry Blotting System (Thermo Fisher, Waltham, Mass.). Blots were then exposed to an antibody for β-actin for normalization. Proteins were detected with enhanced chemilumenescence (GE Healthcare, Amersham, UK). Membranes were exposed to film under non-saturating conditions. Densitometric analysis was conducted using NIH Image 1.57.
Animals. Selectively bred, but alcohol naïve Alcohol-preferring (P) rats (male, 3-4 months old; 250-550 g) (n=7-9/group) were obtained from the Alcohol Research Center, Indiana University School of Medicine, Animals were double housed in Plexiglas cages containing corn cob bedding and food and water was available ad libitum. The colony room was maintained on a normal 12 hr light-dark cycle (light onset at 0700 hr). Procedures followed National Institutes of Health Guidelines under UNC institutional Animal Care and Use Committee approved protocols at University of North Carolina School of Medicine. Rats were habituated to handling for 7 days prior to administration of 3α,5α-THP (15 mg/kg, IP), pregnenolone (75 mg/kg, IP), 3α,5α-THDOC (15 mg/kg, IP), or vehicle (45% w/v 2-hydroxypropyl-p-cyclodextrin) and returned to their home cage. Rats were sacrificed after 45 minutes and the brain was removed and frozen at −80° C. until VTA micropunches were collected from 1 mm cryostat brain sections. This time point was selected because 3α,5α-THP is rapidly metabolized in vivo (Purdy et al, 1990), but has behavioral and pharmacological activity at this time point (Crawley et al, 1986).
ELISA. Brain tissue micropunches were lysed with Cellyte MT and the extracts were assayed for protein content by the BCA procedure (Pierce) and for MCP-1 using the rat MCP-1 ELISA kit (Raybiotech—ERC-MCP-1-CL; Norcross, Ga., USA) or for fracktalkine using the rat fractalkine ELISA kit (Raybiotech—ERC-CX3CL1-CL; Norcross, Ga., USA) as per manufacturer's instructions.
Since the neurosteroids inhibited the TLR4 activation signal in cultured macrophage cells, experiments were conducted to determine whether this also occurs in the brain. Selectively bred P rats that have an innately activated TLR4 signal in the VTA (Liu J, et al. (2011). Proc Natl Acad Sci USA 108(11): 4465-4470), were administered 3α,5α-THP (15 mg/kg, IP) or pregnenolone (75 mg/kg, IP), sacrificed after 45 minutes and examined for TLR4 signaling using parallel measures. […] 3α,5α-THP administration reduced the levels of MCP-1 by 20±9% (p<0.05), TRAF6 by 19±3% (p<0.0001), and CRF by 28±9% (p<0.01), with no effect on TLR4 protein expression (FIG. 4A). Pregnenolone administration had no effect on TRAF6, CRF, or TLR4.

Values joined by “and” are separate entries in the source; they are usually repeats but may differ in a detail not shown here. Equal entries are not always repeated.

`CC(=O)[C@H]1CC[C@H]2[C@@H]3CC[C@H]4C[C@H](O)CC[C@]4(C)[C@H]3CC[C@]12C` [3α,5α-THP, (3α,5α)3-hydroxypregnan-20-one]: for the setting “15 mg/kg IP, P rats”, the “effect on TLR4 protein expression in VTA” value is “no effect”. Further, under “15 mg/kg IP, male P rats”, the “reduction of CRF levels in VTA” value was 28±9% and ~30%; the “reduction of TRAF6 levels in VTA” value was 19±3% and ~20%. The “reduction of MCP-1 levels in VTA” value (15 mg/kg IP, male P rats, ELISA) was 20±9% and ~20%.

Take `CC(=O)[C@H]1CC[C@H]2[C@@H]3CC=C4C[C@@H](O)CC[C@]4(C)[C@H]3CC[C@]12C` [pregnenolone]: where the note is “75 mg/kg IP, P rats”, the “effect on CRF in VTA” value is “no effect”, the “effect on TLR4 in VTA” value was “no effect” and the “effect on TRAF6 in VTA” value was “no effect”.
